Test results reported in US20230146455A1, “TREATMENT OF INFLAMMATORY DISEASES WITH PEPTIDES AND PHARMACEUTICAL COMPOSITIONS” (Yuyu Pharma, Inc., priority 2020, published 2023).
“And” between values parts separate entries of the source, which are not always exact repeats. Equal entries are not always repeated. Where a SMILES comes first, the peptide text is derived from it. [ ]: non-standard residue; d: D form. Hyp = O=C(O)[C@@H]1C[C@@H](O)CN1

Test system: Fas Ligand
Assay: Example 9 Luminex, LPS hPBMCs: Fas Ligand
Format: cell-based, human
Conditions: for Fas Ligand Concentration / Fas Ligand conc/live cell / MFI, bead Fas Ligand: single replicates
Protocol: Treatment Human PBMCs were pretreated with YY-101, YDE-011 and YDE-043 or reference compound; Xiidra® at various concentration (ranging from 1 nM to 100 uM) for 2 h before stimulation. An equal volume of 0.5% DMSO was used as a vehicle control. Then, the cells were treated with LPS at 5 ug/ml. The supernatants from treated cells were harvested at 24 h and placed in a 96 well for Luminex cytokine & chemokine profiling using a Luminex 200 multiplex assay (Luminex; R&D system, USA).
The main study arm with triplicate wells per group in a 24-well plate: • 1. Blank • 2. PBMC: 0.5% DMSO • 3. PBMC+LPS (5 ug/ml) • 4. PBMC+YY-101 100 uM • 5. PBMC+YY-101 10 uM • 6. PBMC+YY-101 1 uM • 7. PBMC+YY-101 0.1 uM • 8. PBMC+YY-101 0.01 uM • 9. PBMC+LPS (5 ug/ml)+Xiidra®100 uM • 10. PBMC+LPS (5 ug/ml)+Xiidra® 10 uM • 11. PBMC+LPS (5 ug/ml)+Xiidra® 1 uM • 12. PBMC+LPS (5 ug/ml)+Xiidra®0.1 uM • 13. PBMC+LPS (5 ug/ml)+Xiidra®0.01 uM • 14. PBMC+LPS (5 ug/ml)+Xiidra®0.001 uM • 15. PBMC+LPS (5 ug/ml)+YY-101 100 uM • 16. PBMC+LPS (5 ug/ml)+YY-101 10 uM • 17. PBMC+LPS (5 ug/ml)+YY-101 1 uM • 18. PBMC+LPS (5 ug/ml)+YY-101 0.1 uM • 19. PBMC+LPS (5 ug/ml)+YY-101 0.01 uM • 20. PBMC+LPS (5 ug/ml)+YY-101 0.001 uM • 21. PBMC+LPS (5 ug/ml)+YDE-011 100 uM • 22. PBMC+LPS (5 ug/ml)+YDE-011 10 uM • 23. PBMC+LPS (5 ug/ml)+YDE-011 1 uM • 24. PBMC+LPS (5 ug/ml)+YDE-011 0.1 uM • 25. PBMC+LPS (5 ug/ml)+YDE-011 0.01 uM • 26. PBMC+LPS (5 ug/ml)+YDE-011 0.001 uM • 27. PBMC+LPS (5 ug/ml)+YDE-043 100 uM • 28. PBMC+LPS (5 ug/ml)+YDE-043 10 uM • 29. PBMC+LPS (5 ug/ml)+YDE-043 1 uM • 30. PBMC+LPS (5 ug/ml)+YDE-043 0.1 uM • 31. PBMC+LPS (5 ug/ml)+YDE-043 0.01 uM • 32. PBMC+LPS (5 ug/ml)+YDE-043 0.001 uM
Multiplex assay was used to measure 30 cytokines and chemokines. The 1:2, 1:10 and 1:200 diluted cell supernatant and serial dilution of the standard were dispensed into a 96 well plate at 50 ul/well. Then, the pre-mixed cocktail of antibody-coated magnetic beads was dispensed at 50 ul/well and incubated at room temperature for 2 h in a horizontal orbital microplate shaker at 800±500 rpm. The beads were washed using a magnetic device to prevent loss. The biotin-antibody was dispensed in 50 ul of each well and incubated at room temperature for 1 h in a shaker at 800±500 rpm. After washing, streptavidin-PE was added at 50 ul/well and incubated at room temperature for 30 min in a shaker under the same conditions. Finally, after washing, wash buffer (100 ul/well) was added to the plate and incubated in a shaker for 2 min. The Luminex™ 200 setting were set according to the manufacturer's protocol. The data was calculated with a standard five-parameter logistic nonlinear regression analysis of the data (xPonent software 4.2, USA). The levels of cytokine/chemokine are normalized to the live cell counts (1×10^5 cells/mL) and presented as concentrations per mL (pg/mL or ng/mL).

[1] = PBMC + LPS(5 ug/ml) + test article 0.001 uM
[2] = PBMC + LPS(5 ug/ml) + test article 0.01 uM
[3] = PBMC + LPS(5 ug/ml) + test article 0.1 uM
[4] = PBMC + LPS(5 ug/ml) + test article 1 uM
[5] = PBMC + LPS(5 ug/ml) + test article 10 uM
[6] = PBMC + LPS(5 ug/ml) + test article 100 uM
[7] = PBMC + test article 0.01 uM, no LPS
[8] = PBMC + test article 0.1 uM, no LPS
[9] = PBMC + test article 1 uM, no LPS
[10] = PBMC + test article 10 uM, no LPS
[11] = PBMC + test article 100 uM, no LPS

## CC(C)C[C@H](NC(=O)CNC(=O)[C@H](CC(=O)O)NC(=O)[C@H](CCC(N)=O)NC(=O)CNC(=O)[C@@H]1C[C@@H](O)CN1)C(=O)N[C@@H](C)C(=O)NCC(=O)N1CCC[C@H]1C(=O)N[C@@H](CCCCN)C(=O)O [YY-101] (H-[Hyp]GQDGLAGPK-OH; N-terminus and C-terminus assumed)
[1]
  Fas Ligand Concentration, Mean: 30.9 pg/mL
  Fas Ligand conc/live cell, Mean: 4.9 pg/10^5
  MFI, bead Fas Ligand, Mean: 43.3
  Fas Ligand Concentration: 35.8 pg/mL and 32.7 pg/mL and 24.1 pg/mL
  Fas Ligand conc/live cell: 6.3 pg/10^5 and 4.6 pg/10^5 and 3.7 pg/10^5
  MFI, bead Fas Ligand: 50.5 and 46.0 and 33.5
[2]
  Fas Ligand Concentration, Mean: 33.8 pg/mL
  Fas Ligand conc/live cell, Mean: 5.5 pg/10^5
  MFI, bead Fas Ligand, Mean: 47.5
  Fas Ligand Concentration: 30.7 pg/mL and 39.3 pg/mL and 31.3 pg/mL
  Fas Ligand conc/live cell: 4.8 pg/10^5 and 6.6 pg/10^5 and 5.1 pg/10^5
  MFI, bead Fas Ligand: 43.0 and 55.5 and 44.0
[3]
  Fas Ligand Concentration, Mean: 29.5 pg/mL
  Fas Ligand conc/live cell, Mean: 5.1 pg/10^5
  MFI, bead Fas Ligand, Mean: 41.3
  Fas Ligand Concentration: 32.7 pg/mL and 30.7 pg/mL and 25.2 pg/mL
  Fas Ligand conc/live cell: 5.3 pg/10^5 and 5.9 pg/10^5 and 4.1 pg/10^5
  MFI, bead Fas Ligand: 46.0 and 43.0 and 35.0
[4]
  Fas Ligand Concentration, Mean: 34.5 pg/mL
  Fas Ligand conc/live cell, Mean: 5.3 pg/10^5
  MFI, bead Fas Ligand, Mean: 48.5
  Fas Ligand Concentration: 35.5 pg/mL and 36.2 pg/mL and 31.7 pg/mL
  Fas Ligand conc/live cell: 5.6 pg/10^5 and 5.1 pg/10^5 (2×)
  MFI, bead Fas Ligand: 50.0 and 51.0 and 44.5
[5]
  Fas Ligand Concentration, Mean: 46.7 pg/mL
  Fas Ligand conc/live cell, Mean: 7.3 pg/10^5
  MFI, bead Fas Ligand, Mean: 66.0
  Fas Ligand Concentration: 58.0 pg/mL and 53.7 pg/mL and 28.6 pg/mL
  Fas Ligand conc/live cell: 9.7 pg/10^5 and 8.4 pg/10^5 and 3.8 pg/10^5
  MFI, bead Fas Ligand: 82.0 and 76.0 and 40.0
[6]
  Fas Ligand Concentration, Mean: 25.4 pg/mL
  Fas Ligand conc/live cell, Mean: 4.3 pg/10^5
  MFI, bead Fas Ligand, Mean: 35.2
  Fas Ligand Concentration: 39.0 pg/mL and 16.0 pg/mL and 21.1 pg/mL
  Fas Ligand conc/live cell: 6.2 pg/10^5 and 2.6 pg/10^5 and 4.2 pg/10^5
  MFI, bead Fas Ligand: 55.0 and 21.5 and 29.0
[7]
  Fas Ligand Concentration, Mean: 7.7 pg/mL
  Fas Ligand conc/live cell, Mean: 1.5 pg/10^5
  MFI, bead Fas Ligand, Mean: 8.8
  Fas Ligand Concentration: 6.5 pg/mL and 8.8 pg/mL
  Fas Ligand conc/live cell: 1.3 pg/10^5 and 1.8 pg/10^5
  MFI, bead Fas Ligand: 7.0 and 10.5
[8]
  Fas Ligand Concentration, Mean: 7.2 pg/mL
  Fas Ligand conc/live cell, Mean: 1.4 pg/10^5
  MFI, bead Fas Ligand, Mean: 8.0
  Fas Ligand Concentration: 6.5 pg/mL and 7.8 pg/mL
  Fas Ligand conc/live cell: 1.5 pg/10^5 and 1.3 pg/10^5
  MFI, bead Fas Ligand: 7.0 and 9.0
[9]
  Fas Ligand Concentration, Mean: 7.5 pg/mL
  Fas Ligand conc/live cell, Mean: 1.4 pg/10^5
  MFI, bead Fas Ligand, Mean: 8.5
  Fas Ligand Concentration: 6.5 pg/mL and 8.5 pg/mL
  Fas Ligand conc/live cell: 1.2 pg/10^5 and 1.5 pg/10^5
  MFI, bead Fas Ligand: 7.0 and 10.0
[10]
  Fas Ligand Concentration, Mean: 13.2 pg/mL
  Fas Ligand conc/live cell, Mean: 2.1 pg/10^5
  MFI, bead Fas Ligand, Mean: 17.3
  Fas Ligand Concentration: 14.0 pg/mL and 12.4 pg/mL
  Fas Ligand conc/live cell: 2.2 pg/10^5 and 2.0 pg/10^5
  MFI, bead Fas Ligand: 18.5 and 16.0
[11]
  Fas Ligand Concentration, Mean: 6.9 pg/mL
  Fas Ligand conc/live cell, Mean: 1.0 pg/10^5
  MFI, bead Fas Ligand, Mean: 7.5
  Fas Ligand Concentration: 7.8 pg/mL and 5.9 pg/mL
  Fas Ligand conc/live cell: 1.2 pg/10^5 and 0.8 pg/10^5
  MFI, bead Fas Ligand: 9.0 and 6.0
